ChEMBL document CHEMBL3885861, “Open TG-GATES”

Organism: Rattus norvegicus
Test: Open TG-GATES - Regimen: Single
Format: toxicity, organism-based, Sprague-Dawley
Design: regimen Single, gender Male, age 6 weeks
Details: in vivo, po, 300 mg/kg, route gavage, dose level Middle; for APTT / Bas / Eos / Fbg / Hb / Ht / Lym / MCH / MCHC / MCV / Mono / Neu / PT / Plat / RBC / Ret / WBC: tissue Blood; for KIDNEY_L / KIDNEY_R / KIDNEY_TOTAL: tissue Kidney; for LIVER: tissue Liver; for A/G / ALP / ALT / AST / BUN / CRE / Ca / Cl / DBIL / GLC / IP / K / LDH / Na / PL / RALB / TBIL / TC / TG / TP / gamma-GTP: tissue Plasma

## CCCCNC(=O)NS(=O)(=O)c1ccc(C)cc1 [TOLBUTAMIDE]
3 h
  TERMINAL_BW: 202.7 g
  APTT: 16.1 s
  Bas: 0%
  Eos: 1%
  Fbg: 308.4 mg/dL
  Hb: 13.7 g/dL
  Ht: 42.4%
  Lym: 75.2%
  MCH: 20.5 pg
  MCHC: 32.3%
  MCV: 63.5 fL
  Mono: 3%
  Neu: 20.4%
  PT: 12.9 s
  Plat: 121.4 x10_4/uL
  RBC: 667.6 x10_4/ul
  Ret: 9%
  WBC: 75.7 x10_2/uL
  KIDNEY_L: 0.9 g
  KIDNEY_R: 0.9 g
  KIDNEY_TOTAL: 1.8 g
  LIVER: 8.8 g
  A/G: 0.9
  ALP: 1501.4 IU/L
  ALT: 42 IU/L
  AST: 75 IU/L
  BUN: 11.2 mg/dL
  CRE: 0.2 mg/dL
  Ca: 10.8 mg/dL
  Cl: 107 meq/L
  DBIL: 0.008 mg/dL
  GLC: 148 mg/dL
  IP: 8.4 mg/dL
  K: 4.1 meq/L
  LDH: 59.6 IU/L
  Na: 141 meq/L
  PL: 135.6 mg/dL
  RALB: 2.6 g/dL
  TBIL: 0.052 mg/dL
  TC: 76.6 mg/dL
  TG: 71.8 mg/dL
  TP: 5.5 g/dL
  gamma-GTP: 1 IU/L
6 h
  TERMINAL_BW: 203.4 g
  APTT: 17.5 s
  Bas: 0.2%
  Eos: 1%
  Fbg: 295 mg/dL
  Hb: 13.9 g/dL
  Ht: 42.5%
  Lym: 75.8%
  MCH: 21.4 pg
  MCHC: 32.7%
  MCV: 65.5 fL
  Mono: 2.6%
  Neu: 20.4%
  PT: 13.1 s
  Plat: 119.3 x10_4/uL
  RBC: 650 x10_4/ul
  Ret: 9%
  WBC: 68.2 x10_2/uL
  KIDNEY_L: 0.9 g
  KIDNEY_R: 0.9 g
  KIDNEY_TOTAL: 1.8 g
  LIVER: 8.5 g
  A/G: 0.9
  ALP: 1415.4 IU/L
  ALT: 47.2 IU/L
  AST: 81.8 IU/L
  BUN: 11.6 mg/dL
  CRE: 0.2 mg/dL
  Ca: 11 mg/dL
  Cl: 106.6 meq/L
  DBIL: 0.006 mg/dL
  GLC: 134.8 mg/dL
  IP: 9.5 mg/dL
  K: 3.8 meq/L
  LDH: 54 IU/L
  Na: 141.4 meq/L
  PL: 126.6 mg/dL
  RALB: 2.6 g/dL
  TBIL: 0.058 mg/dL
  TC: 66.6 mg/dL
  TG: 59.2 mg/dL
  TP: 5.4 g/dL
  gamma-GTP: 1.2 IU/L
